Experimental data reported in BigSolDB 2.1.

CC(C)(C)OC(=O)N[C@@H](CC(N)=O)C(=O)O
solubility (mole fraction)
Details	283.15 K	288.15 K	293.15 K	298.15 K	303.15 K	308.15 K	313.15 K	318.15 K	323.15 K
in 2-butanone	0.000534	0.000543	0.000641	0.000673	0.000804	0.000879	0.00109	0.00131	0.00171
in acetone	0.000897	0.000927	0.0012	0.00139	0.00166	0.00201	0.00222	0.00253	0.00308
in acetonitrile	0.000136	0.000177	0.000195	0.000257	0.000313	0.000398	0.000499	0.000665	0.000856
in ethanol	0.00213	0.00253	0.0031	0.00375	0.00454	0.00533	0.00632	0.00776	0.0091
in isobutanol	0.000686	0.000865	0.000918	0.00106	0.0014	0.0018	0.00236	0.00324	0.00421
in isopropanol	0.00136	0.00169	0.00204	0.00252	0.00317	0.00372	0.00433	0.00528	0.00658
in methanol	0.00641	0.0073	0.00842	0.00982	0.0111	0.013	0.0153	0.0172	0.022
in n-butanol	0.000791	0.000839	0.00113	0.00131	0.00172	0.00189	0.00241	0.003	0.00377
in n-pentanol	0.000561	0.000787	0.00102	0.00154	0.00178	0.00227	0.00266	0.00302	0.00364
in n-propanol	0.00105	0.00145	0.00176	0.00195	0.0026	0.00323	0.00386	0.00498	0.00612
in sec-butanol	0.00103	0.00143	0.0017	0.00227	0.00245	0.00299	0.00406	0.00505	0.00619
in water	0.000247	0.000288	0.000359	0.000452	0.000492	0.000617	0.00076	0.000834	0.00107
